Source: ChEMBL document CHEMBL1201862, “PubChem BioAssay data set” (2004)
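Interpolation was linear, between the two tested concentrations surrounding the appropriate level; five concentrations were tested over 48 hours in 96-well plates. GI50 marks 50% less growth.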 Active and inactive are the calls of the source. Rule as the data show it: active = GI50 up to about 1.1 µM and inactive = higher.

Columns and labels:
Assay in all cases: inhibition of tumour cell growth, NCI panel, 48 h
[1] = system: DU-145
[2] = system: NCI-H522
[3] = system: SW-620
[4] = system: SF-539
[5] = system: OVCAR-4
[6] = system: CCRF-CEM
[7] = system: Malme-3M
[8] = system: SK-MEL-5
[9] = system: HT-29
[10] = system: MOLT-4
[11] = system: SF-295
[12] = system: K562
[13] = system: 786-0
[14] = system: IGROV-1
[15] = system: OVCAR-8
[16] = system: RXF 393
[17] = system: OVCAR-3
[18] = system: SK-MEL-2
[19] = system: NCI-H226
[20] = system: OVCAR-5

Measured: GI50

O=C(O)/C=C/c1ccc(Oc2ccccc2C(=O)O)o1
inactive: [1] > 10 µM | [2] > 10 µM | [3] > 10 µM | [4] > 10 µM | [5] > 10 µM | [6] > 10 µM | [7] > 10 µM | [8] > 10 µM | [9] > 10 µM | [10] > 10 µM | [11] > 10 µM | [12] > 10 µM | [13] > 10 µM | [14] > 10 µM | [15] > 10 µM

COc1cc2cc3c4c(cc(OC)c(OC)c4c2cc1OC)CCN3
inactive: [16] 25.1 µM | [2] 31.3 µM | [3] 21.1 µM | [4] 14.6 µM | [17] 27.2 µM | [5] 33.7 µM | [6] 26.5 µM | [7] 44.5 µM | [8] 23.8 µM | [9] 32.9 µM | [10] 35.3 µM | [11] 37 µM | [12] 27.9 µM | [18] 22.1 µM | [13] 48.4 µM | [19] > 100 µM | [14] > 100 µM | [15] 76.4 µM

Cc1cc2c(=O)cc(-c3ccc(C(F)(F)F)cc3)oc2c(C(=O)O)c1C
inactive: [16] > 100 µM | [2] > 100 µM | [3] > 100 µM | [4] > 100 µM | [17] > 100 µM | [5] > 100 µM | [20] > 100 µM | [6] > 100 µM | [7] > 100 µM | [8] > 100 µM | [9] > 100 µM | [10] > 100 µM | [11] > 100 µM | [12] > 100 µM | [18] > 100 µM | [13] > 100 µM | [19] > 100 µM | [14] > 100 µM | [15] > 100 µM

CC(=O)NC1=C(C)C(=O)c2c(nc3n2CCC3OC(=O)CCl)C1=O (stereo unspecified)
inactive: [16] 5.43 µM | [2] 3.05 µM | [3] 8.99 µM | [4] 2.73 µM | [17] 1.41 µM | [5] 1.52 µM | [20] 12.9 µM | [6] 1.45 µM | [7] 3.66 µM | [8] 12.7 µM | [9] 15.6 µM | [10] 1.69 µM | [11] 16.1 µM | [12] 2.19 µM | [18] 3 µM | [13] 9.48 µM | [19] 2.52 µM | [14] 11.8 µM | [15] 4.1 µM

O=CC1=CCC2c3[nH]c4ccccc4c3CCN2C1 (stereo unspecified)
inactive: [16] 182 µM | [2] 325 µM | [3] 122 µM | [4] 175 µM | [17] 92.5 µM | [20] > 396 µM | [6] 107 µM | [7] 296 µM | [8] 114 µM | [9] 101 µM | [10] 90.2 µM | [11] 106 µM | [12] 130 µM | [18] 90.8 µM | [13] 141 µM | [19] 117 µM | [14] 125 µM | [15] 139 µM

O=C(O)C[C@@H](Cl)[C@H](NC(=O)OCc1ccccc1)C(=O)O
inactive: [16] > 100 µM | [2] > 100 µM | [3] > 100 µM | [4] > 100 µM | [17] > 100 µM | [5] > 100 µM | [20] > 100 µM | [6] > 100 µM | [7] > 100 µM | [8] > 100 µM | [9] > 100 µM | [10] > 100 µM | [11] > 100 µM | [12] > 100 µM | [18] > 100 µM | [13] > 100 µM | [19] > 100 µM | [14] > 100 µM | [15] > 100 µM

CCCCCCC1=NOC(C(c2cc[nH]c2)N(C)[C@H](C(=O)OC)C(C)C)C1 (stereo partly specified)
inactive: [16] 52.7 µM | [2] 16.1 µM | [3] 26.6 µM | [4] 57 µM | [17] 25.4 µM | [5] 39 µM | [20] > 100 µM | [6] 16.7 µM | [7] 70.1 µM | [8] 41.8 µM | [9] 34 µM | [10] 19.4 µM | [11] 47.1 µM | [12] 39.2 µM | [18] 25.8 µM | [13] 58.9 µM | [19] 51.1 µM | [14] 65.8 µM | [15] 42.2 µM

c1csc(-c2ccc(-c3ccc(-c4ccc(-c5cccs5)s4)s3)s2)c1
inactive: [1] > 100 µM | [16] 56.5 µM | [3] > 100 µM | [4] > 100 µM | [17] > 100 µM | [20] > 100 µM | [6] 26.5 µM | [8] > 100 µM | [9] > 100 µM | [10] 31.6 µM | [11] 40.6 µM | [12] 47.1 µM | [13] > 100 µM | [19] > 100 µM | [14] > 100 µM | [15] > 100 µM

COC(=O)C(=O)C(C(=O)C(=O)Nc1cccc(C(C)=O)c1)c1nc2ccccc2nc1O (stereo unspecified)
inactive: [16] > 100 µM | [2] > 100 µM | [3] > 100 µM | [4] > 100 µM | [17] > 100 µM | [5] > 100 µM | [20] > 100 µM | [6] > 100 µM | [7] > 100 µM | [8] > 100 µM | [9] > 100 µM | [10] > 100 µM | [11] > 100 µM | [12] > 100 µM | [18] > 100 µM | [13] > 100 µM | [19] > 100 µM | [14] > 100 µM

O=C(O)C[n+]1cn(NC(=O)Cc2ccccc2)cn1
inactive: [1] > 10 µM | [2] > 10 µM | [3] > 10 µM | [4] > 10 µM | [17] > 10 µM | [5] > 10 µM | [20] > 10 µM | [6] > 10 µM | [7] > 10 µM | [8] > 10 µM | [9] > 10 µM | [10] > 10 µM | [11] > 10 µM | [12] > 10 µM | [13] > 10 µM | [14] > 10 µM | [15] > 10 µM

COC(=O)c1cccn1C(=O)n1cccc1
inactive: [16] > 100 µM | [2] > 100 µM | [3] > 100 µM | [4] > 100 µM | [17] > 100 µM | [5] > 100 µM | [20] > 100 µM | [6] > 100 µM | [7] > 100 µM | [8] > 100 µM | [9] > 100 µM | [10] > 100 µM | [11] > 100 µM | [12] > 100 µM | [18] > 100 µM | [13] > 100 µM | [19] > 100 µM | [14] > 100 µM | [15] > 100 µM

CC(=O)OCC1OC(n2c(C)c(/N=N/c3ccc(Cl)cc3)c(C)c(C#N)c2=S)C(OC(C)=O)C(OC(C)=O)C1OC(C)=O (stereo unspecified)
inactive: [1] 73.3 µM | [16] 18.2 µM | [3] > 100 µM | [4] 44.1 µM | [17] > 100 µM | [5] > 100 µM | [20] 31.8 µM | [6] > 100 µM | [7] > 100 µM | [8] 64.3 µM | [9] > 100 µM | [10] > 100 µM | [11] 25.1 µM | [12] > 100 µM | [18] 34.2 µM | [13] 19.9 µM | [14] 41.8 µM

Cc1c(C(=O)CC(=O)C(=O)Nc2cc(Cl)ccc2Cl)[n+]([O-])c2ccccc2[n+]1[O-]
inactive: [16] 53.8 µM | [2] 23.1 µM | [3] 36 µM | [4] 47.8 µM | [17] 19.9 µM | [5] 46.1 µM | [20] > 100 µM | [6] 73.8 µM | [7] 43.6 µM | [8] 32.6 µM | [9] 28.5 µM | [10] 26.6 µM | [11] > 100 µM | [12] 72.4 µM | [18] 37.9 µM | [13] 61.5 µM | [19] > 100 µM | [14] 36.9 µM | [15] 30.7 µM

C[C@]12CC[C@@H]3c4ccc(OP(=O)(O)O)cc4CC[C@H]3[C@@H]1CCC2=O
inactive: [1] > 100 µM | [16] 56.9 µM | [2] 33.4 µM | [3] 63.7 µM | [4] 81.8 µM | [17] 62.8 µM | [5] 50.9 µM | [20] > 100 µM | [6] 27.6 µM | [7] > 100 µM | [8] 28.4 µM | [9] 63.1 µM | [10] 54 µM | [11] 71.8 µM | [12] 46.3 µM | [18] 62.5 µM | [13] > 100 µM | [14] > 100 µM | [15] > 100 µM

Nc1c(S(=O)(=O)c2ccccc2)c2nc3ccccc3nc2n2c1nc1ccccc12
inactive: [16] > 100 µM | [2] 36.5 µM | [3] > 68.2 µM | [4] 11.1 µM | [17] > 25.4 µM | [5] 19.8 µM | [20] > 100 µM | [6] > 39.2 µM | [7] 19.5 µM | [8] 32.4 µM | [9] > 84.1 µM | [10] > 29.4 µM | [11] > 34.7 µM | [12] 22.4 µM | [18] > 55.3 µM | [13] 8.09 µM | [19] 37.5 µM | [14] > 57.3 µM | [15] 20.1 µM
